For 88 molecules, melting point results are on record in a melting point compilation (Tetko et al.; mined from patent text by program, amines drawn as free bases though some values may be those of a salt).

Bounds are passed on as bounds.

By melting point is commonly meant the temperature, or range, at which the solid turns liquid. With `O=S(=O)(Nc1onc2c1CCC2)c1ccccc1`, the melting point was determined as 132 °C.

In turn, `COc1cccc(C(=O)NCCc2ccc(-c3ccc(OC(C)(C)C(=O)O)cc3)cc2)c1OC` had a melting point of 184 °C.

For `Cc1cc2c(c(C)c1N)CCO2`, the melting point lay in the range of 85 to 86 °C.

As for `COc1ccc(N2CCN(Cc3ccc(CNC(C)=O)cc3)CC2)cc1`, the melting point is 137 to 138 °C. `COc1c(C)c(C)c2c(c1C)CC(CC(=O)O)O2` (racemic) had a melting point of 74 to 76 °C. For the molecule `COc1cc2nc(N)nc(-c3cc(-c4ccccc4)cc(-c4ccc(O)cc4)c3)c2cc1OC`, the melting point was 255 to 257 °C. With `COc1cc2c(=O)c(C)cn3c4ccccc4c(c1)c23`, the melting point lay in the range of 165 to 168 °C.

Regarding `COC(=O)NNC(=O)CCC1CCCCC1`, the melting point turned out to be 113 °C. Consider `CCOC(=O)C1CC2CCC(=O)N2C1=O` (stereo not drawn), for which the melting point fell in the range of 65 to 67 °C. Molecule `FC(F)(F)C1(c2cc(Cl)cc(Cl)c2)CC(c2ccc(-n3cccc3)cc2)=NO1` (stereo not drawn) yielded a melting point of 206 to 208 °C.

As to `Clc1ccc(-c2nc3c(c(NC4CCCC4)n2)CCC3)cc1`, the melting point amounted to 167 °C.

As for `CSC(=S)N1CC(C)(C)CSC1=Nc1ccccc1C(C)C`, the melting point is 77 to 79 °C. Molecule `CC1(C)CCc2ccc(C(=O)O)cc2CC1` returned a melting point of 166 to 171 °C. In turn, `Cc1ccc(CN(Cc2ccc(C)cc2)c2nccc(-c3ccc(-c4ccc(N(c5ccccc5)c5ccccc5)cc4)cc3)n2)cc1` showed a melting point of 153 to 154 °C. Molecule `CC1c2cccc3c2N(CC3)c2ccccc2N1C(=O)CN(C)C` (stereo not drawn) yielded a melting point of 104 to 108 °C. As for `CCOC(=O)N(c1ccccc1)c1cc(Cl)ccc1-n1nc(C(=O)O)nc1CCl`, the melting point was 115 to 117 °C. `CCCc1nc2c(N)nc3ccccc3c2n1CCCC1(C)OCCO1` displayed a melting point of 184 to 186 °C. Regarding `CC[C@H]1COC(=O)N1c1cc(C)nc(Oc2c(C)cc(Cl)cc2C)c1C(=O)OC`, the melting point lay within 144 to 146 °C. Then `CC(=O)c1ccc(-c2ccc(F)cc2Cl)c([N+](=O)[O-])c1`, with 93 to 95 °C; and `CN1CCc2cc(S(=O)(=O)Nc3cnc4ccc(Cl)cc4n3)ccc21`, with 213 to 214 °C. For the molecule `Cc1ccc(C#Cc2cc3ccccc3s2)s1`, the melting point was in the range of 85 to 87 °C. With `CCCCCCCCCCCNC(=O)N(CC)CC` the figure was 33 to 35 °C; with `Cc1cc(Cc2nnc(Nc3ccc(Cl)cc3)c3ccccc23)ccn1`, 183 to 184 °C. Molecule `Cc1nn(C(=O)NC2CCCCC2)c(=O)n1NC(C)C` yielded a melting point of 92 °C.

The molecule `Nc1ccc([N+](=O)[O-])cc1OCCc1cccc2ccccc12` returned a melting point of 151 to 153 °C. As for `O=C(O)c1ccc(-c2nnc3n2-c2cccnc2Nc2ccccc2-3)cc1`, the melting point was greater than 300 °C.

`CCN1C(=O)C(C)(C)C(=O)N(C)c2cc(CN(CCn3ccc4oc(C)cc4c3=O)Cc3cc(COC)nn3C)ccc21` returned a melting point of 113 to 115 °C.

With `FC(F)(F)c1ccc2onc(Nc3ccncc3)c2c1`, the melting point is greater than 280 °C.

On to `O=C1NC(C(Cl)(Cl)Cl)Nc2ccc(I)cc21` (stereo not drawn), for which the melting point lay in the range of 224 to 225 °C. For `Cc1cc(C)c2c(O)c(O)c(O)nc2c1`, the melting point was 280 to 282 °C. Turning to `COc1ccc(C(Sc2cc(Oc3ccc(Cl)cc3)ccc2N)C(O)C(=O)O)cc1` (stereo not drawn), the melting point lay within 179 to 181 °C. Regarding `Cc1cc(CN2CCN(c3ccc(C(=O)NC4CC4)cc3)CC2)cc2c1OC(C)C(=O)N2` (stereo not drawn), the melting point lay within 257 to 263 °C. `CC(=NOCC=Cc1ccccc1)C(=O)O` gave a melting point of 89 to 91 °C. The molecule `O=C(Nc1ccc(Cl)cc1)NC1N=C(c2ccccc2)c2ccccc2N(CC(=O)N2CCCC2)C1=O` (stereo not drawn) registered a melting point of 264 to 266 °C. `BrCc1c(Br)c(Br)c(CBr)c(Br)c1Br` showed a melting point of 268 to 271 °C. Turning to `Cc1nc(N2CCN(CC3CCC3)C2=O)sc1C(=O)NCc1cccnc1`, the melting point was 136 to 137 °C. Then `Cc1ccc(NC(=O)c2ccsc2)cc1-c1nc(N(C)C)nc2c1CNC(=O)N2c1c(F)cccc1F`, with 214 to 215 °C; and `N#CC(=O)c1ccccc1Cl`, with 33 °C; and `Cc1cc2cc(CN3CCCC3)cnc2cc1NC(=O)c1ccc(-c2ccc(F)cc2)cc1`, with 182 to 187 °C. On to `CCN(CCNS(C)(=O)=O)c1ccc(NC(C)=O)c(C)c1`, for which the melting point lay within 104 to 105 °C.

With `COC(=O)C(F)=CC1C(C(=O)O)C1(C)C` (stereo not drawn), the melting point was 89 °C. Then `Cc1ccc(C(=S)Nc2cc(F)ccc2F)cc1`, with 118 to 121 °C; and `COC(=O)c1cc(I)cc(Cl)c1OC`, with 41 to 43 °C; and `Cn1cncc1C(c1ccc(Cl)cc1)c1ccc(N)c(C(=O)c2cccc(Cl)c2)c1` (stereo not drawn), with 179 °C. The molecule `CC(Cc1ccc(Cl)c(OC(F)(F)C(F)F)c1)NC(=O)C1C2=C(C=CC1(O)c1ccc(F)cc1)CCCC=C2` (stereo not drawn) yielded a melting point of 174 to 175 °C. On to `Cn1nc(-c2cccc(Br)c2)cc1C(=O)O`, for which the melting point was in the range of 166 to 169 °C.

Molecule `CCn1ncc2c(NCC3CCCCC3)c3cc(C(=O)O)ccc3nc21` returned a melting point of 240 °C.

For the molecule `CCCCCCCCc1c(CCCCCCCC)c2cc(Br)sc2c2sc(Br)cc12`, the melting point fell in the range of 63.8 to 65.2 °C. Turning to `COCCOc1cc2c(cc1C#Cc1ccccc1)NC(=O)CC(c1cccc(-n3ccnc3)c1)=N2`, the melting point is 187 to 189 °C.

`CC(C)(C)NC(=O)N1CCn2c(C#N)c(-c3cccc(F)c3)c(C(N)=O)c2C1`: the melting point is greater than 217 °C. For the molecule `CCCCCn1c(=O)c(-c2ccccc2)c2n(c1=O)CCCS2`, the melting point fell in the range of 100 to 101 °C. As for `COC(=O)c1cn2c(=O)c(Cl)c(C)nc2s1`, the melting point lay in the range of 218 to 220 °C. For the molecule `Cn1nc(-c2cnc(N)nc2-c2cccs2)ccc1=O`, the melting point came to 270 °C. Regarding `COc1ccc(Nc2ncc3cc(-c4c(Cl)cccc4Cl)c(=O)n(C)c3n2)cn1`, the melting point is 233 to 235 °C. Then `ClCc1nnc2n1-c1ccccc1C(c1ccccc1Cl)=NC2`, with 186 to 188 °C. Consider `CC(=O)c1cc2c(s1)CCCC2NC(N)=O` (stereo not drawn), for which the melting point was 218 to 220 °C. The molecule `O=C(O)CCCCCCCCCCCNC(=O)CCCCCCCCC/C=C/c1ccccc1` returned a melting point of 119 to 121 °C.

`CNC(=O)c1ccccc1Nc1nc(Nc2cc3c(cc2OC)CCOC(=O)N3C)ncc1Cl` displayed a melting point of 256 to 258 °C. With `Cc1[nH]c2ccccc2c1CCN1CCN(N)CC1`, the melting point was in the range of 118 to 120 °C. In turn, `CCOC(=O)C1(C(=O)OCC)CCC2(CC1)c1ccc(O)cc1CCN2C(=O)OCc1ccccc1` yielded a melting point of 123 to 124 °C. `Cn1cc(S(C)(=O)=O)c(=O)c2ccc(C(C)(C)C)cc21` yielded a melting point of 247 to 248 °C. Regarding `Cc1cnc(-c2cc(-c3ccc(Cl)cc3)c(N3CCOCC3)s2)cc1OCC(F)(F)F`, the melting point is 177 to 178 °C. As for `COc1ccc(CSc2nnc(-c3ccc4occc4c3)o2)cc1`, the melting point lay in the range of 124 to 125 °C. Consider `CON=C1CSc2ccccc2CN1`, for which the melting point lay in the range of 101 to 102 °C. The molecule `COc1cc(C(=O)OCCN(CCOC(=O)c2cc(OC)c(OC)c(OC)c2)CCS(=O)(=O)O)cc(OC)c1OC` came in with a melting point of 178 to 182 °C.

For `CCOC(Nc1ccccc1)(OCC)c1ccnc(C(=O)c2ccc(Cl)cc2)c1`, the melting point is 98 to 99 °C. On to `COc1ccc(C(=O)NCCOc2ccc(CC(Oc3ccccc3)C(=O)O)cc2)cn1` (stereo not drawn), for which the melting point is 145 to 146 °C. The molecule `CCN(CC)C(=O)n1cnc(S(=O)(=O)CC2CCCC2)n1` had a melting point of 77 to 79 °C. On to `CCOC(=O)C1C(N(C)C(=O)C(F)(F)F)C(=O)N1c1ccc(OC)cc1` (stereo not drawn), for which the melting point was 102 to 104 °C. `CCOC(=O)c1c[nH]c2c(OC)csc2c1=O` gave a melting point of 244 to 247 °C. Then `Cc1cc(OCCCCCCCCNC(=O)c2cc(-c3cccc(Cl)c3)c(OCC(=O)O)c(-c3cccc(Cl)c3)c2)ccc1F`, with 138 to 140 °C; and `CCOC(=O)C(CNC(C)=O)c1cn(C(=O)OCC)c2ccc(OC)cc12` (stereo not drawn), with 88 to 90 °C. In turn, `COc1ccc(OC)c2c1C=CNC(=O)C2` displayed a melting point of 188 to 191 °C. `CCCn1c(=O)nc2sc3ccccc3nc-2c1=O` returned a melting point of 258 °C. `O=C1OCCN1CCN1CCN(Cc2ccccc2)CC1` returned a melting point of 82 to 84 °C.

The molecule `O=C1CCC(N2C(=O)c3cccc(OCc4ccc(CN5CCC(c6ccc(Cl)cc6)CC5)cc4)c3C2=O)C(=O)N1` (stereo not drawn) returned a melting point of 236 to 238 °C. Take `CS(=O)(=O)O[C@@H](COC(c1ccccc1)(c1ccccc1)c1ccccc1)C[C@@H]1c2ccccc2Oc2ccc(F)cc2[C@H]1N=[N+]=[N-]`: the melting point was in the range of 55 to 56 °C. On to `c1ccc(-c2nc3c([nH]2)CCCC3CN2CCN(c3ncccn3)CC2)cc1` (stereo not drawn), for which the melting point fell in the range of 200 to 202 °C. Molecule `NCCC1(O)c2ccccc2CCc2ccccc21` came in with a melting point of 113 to 114 °C. On to `OCC=Cc1ccc(-c2cnc(CSCCOc3ccccc3)o2)cc1`, for which the melting point is 73 to 74 °C. `O=Cc1ccc(-c2nnc(-c3ccccc3[N+](=O)[O-])o2)cc1` yielded a melting point of 189 to 190 °C. The molecule `O=C(O)C1CCCN1c1ncccc1[N+](=O)[O-]` (stereo not drawn) had a melting point of 137 to 139 °C.

`Cc1noc(=O)c2ccc(NC(=O)C(C)(O)CC3(c4cccc(C(F)(F)F)c4)CC3)cc12` (stereo not drawn): the melting point was 75 to 76 °C. Molecule `CC(C)(OCc1cc2cc(C(F)(F)F)ccc2n1S(=O)(=O)c1ccccc1)C(=O)O` showed a melting point of 134 to 136 °C. For `O=C(O)CCc1cn(Cc2ccc(OCc3csc(-c4ccccc4)n3)nc2)nc1-c1ccccc1`, the melting point lay within 107 to 108 °C. Then `Cc1c(C)c(Br)c2c(c1C)C(=O)C(C)(C)O2`, with 145 to 146 °C; and `c1cc2[nH]ncc2cc1NC1CCN(CC2CCCCC2)CC1`, with 179 to 180 °C; and `O=C(Nc1ccc(N(Cc2ccccc2)C(=O)OCc2ccccc2)c(F)c1)OCc1ccccc1`, with 101 to 102 °C.
